Consider 24 compounds from US20240279220A1, “INDOLE COMPOUNDS AND METHODS OF USE” (Genzyme Corporation, priority 2021, published 2024).

For the assay, the system named is NBD1/3D. Kind of assay: Aggregation analysis using differential static light scattering (DSLS), NBD1 thermal stability. The assay is classed as binding, Human. The note with it: ΔTagg versus DMSO control; compound at 100 μM. The method in brief:
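Thermal stabilisation reported as ΔTagg, i.e. aggregation temperature relative to averaged DMSO wells. Tagg came from the inflection of differential static light scattering imaged 25–70 °C while NBD1 (0.2 mg/ml, Tris pH 7.6 buffer containing ATP, MgCl2, DTT, glycerol) was ramped 1 °C/min.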

Molecules are shown by their SMILES.

With `Cc1c(Oc2cccc(-c3ncc(C(C)(O)c4cccc(C5CC5C(=O)O)c4)[nH]3)c2)ccc2[nH]ccc12` (stereo not drawn) [Example 222, 2-(3-(1-hydroxy-1-(2-(3-((4-methyl-1H-indol-5-yl)oxy)phenyl)-1H-imidazol-5-yl)ethyl)phenyl)cyclopropane-1-carboxylic acid], the “DSLS NBD1/3D Human Stability delta-T (° C.) @ 100 (μM)” value (shortened to “DSLS NBD1/3D Human Stability delta-T”) is given as “B (B: 5-10° C.)”.

Turning to `Cc1c(Oc2ccc(F)c(-c3nc(C(C)(C)c4cccc(CCC(=O)O)c4F)c[nH]3)c2)c(F)c(F)c2[nH]ccc12` [Example 158, 3-(3-(2-(2-(5-((6,7-difluoro-4-methyl-1H-indol-5-yl)oxy)-2-fluorophenyl)-1H-imidazol-4-yl)propan-2-yl)-2-fluorophenyl)propanoic acid], the “DSLS NBD1/3D Human Stability delta-T” value is listed as “B (B: 5-10° C.)”. For `CC(O)(c1cccc(CCC(=O)O)c1)c1cnc(-c2cc(Oc3c(F)cc4[nH]ccc4c3CCF)ccc2F)[nH]1` (stereo not drawn) [Example 200, 3-(3-(1-(2-(2-fluoro-5-((6-fluoro-4-(2-fluoroethyl)-1H-indol-5-yl)oxy)phenyl)-1H-imidazol-5-yl)-1-hydroxyethyl)phenyl) propanoic acid], the “DSLS NBD1/3D Human Stability delta-T” value was “A (A: T ≥ 10° C.)”. The same measure for `CC(CC#N)(c1cccc(CCC(=O)O)c1)c1cnc(-c2cc(Oc3c(F)cc4[nH]ccc4c3F)ccc2F)[nH]1` (stereo not drawn) [Example 77, 3-(3-(1-cyano-2-(2-(5-((4,6-difluoro-1H-indol-5-yl)oxy)-2-fluorophenyl)-1H-imidazol-5-yl)propan-2-yl)phenyl)propanoic acid]: “B (B: 5-10° C.)”. The same measure for `Cc1c(Oc2cccc(-c3c(F)cnn3Cc3cccc(CCC(=O)O)c3)c2)c(F)cc2[nH]ccc12` [Example 20, 3-(3-((4-Fluoro-5-(3-((6-fluoro-4-methyl-1H-indol-5-yl)oxy)phenyl)-1H-pyrazol-1-yl)methyl)phenyl)propanoic acid]: “C (C: ≤5° C.)”; for `Cc1c(Oc2ccc(F)c(-c3ncc(C(C)c4cccc([C@@H]5CC5C(=O)O)c4F)[nH]3)c2)c(F)cc2[nH]ccc12` (single isomer, unassigned) [Example 138B, cis-2-(2-fluoro-3-(1-(2-(2-fluoro-5-((6-fluoro-4-methyl-1H-indol-5-yl)oxy)phenyl)-1H-imidazol-5-yl)ethyl)phenyl)cyclopropane-1-carboxylic acid]: “C (C: ≤5° C.)”. As for `CC(c1cnc(-c2cc(Oc3c(F)cc4[nH]ccc4c3CC(F)(F)F)ccc2F)[nH]1)c1cccc(CCC(=O)O)c1F` (single isomer, unassigned) [Example 128A, 3-(2-fluoro-3-(1-(2-(2-fluoro-5-((6-fluoro-4-(2,2,2-trifluoroethyl)-1H-indol-5-yl)oxy)phenyl)-1H-imidazol-5-yl)ethyl)phenyl)propanoic acid], the entry is “B (B: 5-10° C.)”; as for `CC(c1cn(C)c(-c2cc(Oc3c(F)cc4[nH]ccc4c3F)ccc2F)n1)c1cccc(CCC(=O)O)c1F` (single isomer, unassigned) [Example 278A, 3-(3-(1-(2-(5-((4,6-difluoro-1H-indol-5-yl)oxy)-2-fluorophenyl)-1-methyl-1H-imidazol-4-yl)ethyl)-2-fluorophenyl)propanoic acid], “C (C: ≤5° C.)”. For the compound `Cc1c(Oc2ccc(F)c(-c3ncc(Cc4cc(F)cc(CCC(=O)O)c4)[nH]3)c2)c(F)c(F)c2[nH]ccc12` [Example 105, 3-(3-((2-(5-((6,7-difluoro-4-methyl-1H-indol-5-yl)oxy)-2-fluorophenyl)-1H-imidazol-5-yl)methyl)-5-fluorophenyl)propanoic acid], the “DSLS NBD1/3D Human Stability delta-T” value is “B (B: 5-10° C.)”. As for `Cc1c(Oc2cccc(-c3ncc(C(O)c4cccc(C5CC5C(=O)O)c4)[nH]3)c2)ccc2[nH]ccc12` (stereo not drawn) [Example 176, 2-(3-(hydroxy(2-(3-((4-methyl-1H-indol-5-yl)oxy)phenyl)-1H-imidazol-5-yl)methyl)phenyl)cyclopropane-1-carboxylic acid], the entry is “B (B: 5-10° C.)”. As for `O=C(O)CCc1cccc(Cc2nnc(-c3cc(Oc4c(F)cc5[nH]ccc5c4F)ccc3F)[nH]2)c1` [Example 240, 3-(3-((5-(5-((4,6-difluoro-1H-indol-5-yl)oxy)-2-fluorophenyl)-4H-1,2,4-triazol-3-yl)methyl)phenyl) propanoic acid], the entry is “B (B: 5-10° C.)”; as for `CS(=O)(=O)c1c(Oc2ccc(F)c(-c3nc(C4(c5cccc(CCC(=O)O)c5)CC(F)(F)C4)cs3)c2)c(F)cc2[nH]ccc12` [Example 79, 3-(3-(3,3-Difluoro-1-(2-(2-fluoro-5-((6-fluoro-4-(methylsulfonyl)-1H-indol-5-yl)oxy)phenyl)thiazol-4-yl)cyclobutyl)phenyl)propanoic acid], “B (B: 5-10° C.)”. As for `Cc1c(Oc2ccc(F)c(-c3ccn(Cc4cccc(CCC(N)=O)c4)n3)c2)c(F)cc2[nH]ccc12` [Example 17, 3-(3-((3-(2-Fluoro-5-((6-fluoro-4-methyl-1H-indol-5-yl)oxy)phenyl)-1H-pyrazol-1-yl)methyl)phenyl)propanamide], the entry is “C (C: ≤5° C.)”.

On to `Cc1c(Oc2ccc(F)c(-c3ncc(C(C)(C#N)c4cccc(CCC(=O)O)c4)[nH]3)c2)c(F)c(F)c2[nH]cc(Cl)c12` (stereo not drawn) [Example 57, 3-(3-(1-(2-(5-((3-chloro-6,7-difluoro-4-methyl-1H-indol-5-yl)oxy)-2-fluorophenyl)-1H-imidazol-5-yl)-1-cyanoethyl)phenyl)propanoic acid], for which the “DSLS NBD1/3D Human Stability delta-T” value is “B (B: 5-10° C.)”. The same measure for `CS(=O)(=O)c1c(Oc2ccc(F)c(-c3ncc(Cc4ccc5c(c4)CC(C(=O)O)C5)[nH]3)c2)c(F)cc2[nH]ccc12` (single isomer, unassigned) [Example 83B, 5-((2-(2-Fluoro-5-((6-fluoro-4-(methylsulfonyl)-1H-indol-5-yl)oxy)phenyl)-1H-imidazol-5-yl)methyl)-2,3-dihydro-1H-indene-2-carboxylic acid]: “B (B: 5-10° C.)”; for `Cc1c(Oc2cccc(-c3ccn(Cc4cccc(CCCO)c4)n3)c2)ccc2[nH]ccc12` [Example 6, 3-(3-((3-(3-((4-Methyl-1H-indol-5-yl)oxy)phenyl)-1H-pyrazol-1-yl)methyl)phenyl)propan-1-ol]: “C (C: ≤5° C.)”; for `COCCOCCOC(C)(c1cccc(CCC(=O)O)c1)c1cnc(-c2cc(Oc3c(F)cc4[nH]ccc4c3C)ccc2F)[nH]1` (stereo not drawn) [Example 233, 3-(3-(1-(2-(2-Fluoro-5-((6-fluoro-4-methyl-1H-indol-5-yl)oxy)phenyl)-1H-imidazol-5-yl)-1-(2-(2-methoxyethoxy)ethoxy)ethyl)phenyl)propanoic acid]: “B (B: 5-10° C.)”. The same measure for `[2H]C([2H])([2H])C(C#N)(c1cc(F)cc(CCC(=O)O)c1)c1c[nH]c(-c2cc(Oc3c(F)c(F)c4[nH]ccc4c3F)ccc2F)n1` (single isomer, unassigned) [Example 65, 3-(3-(1-cyano-1-(2-(2-fluoro-5-((4,6,7-trifluoro-1H-indol-5-yl)oxy)phenyl)-1H-imidazol-4-yl)ethyl-2,2,2-d3)-5-fluorophenyl)propanoic acid]: “B (B: 5-10° C.)”; for `CC(CO)(c1cccc(CCC(=O)O)c1)c1c[nH]c(-c2cc(Oc3c(F)c(F)c4[nH]ccc4c3S(C)(=O)=O)ccc2F)n1` (stereo not drawn) [Example 69, 3-(3-(2-(2-(5-((6,7-difluoro-4-(methylsulfonyl)-1H-indol-5-yl)oxy)-2-fluorophenyl)-1H-imidazol-5-yl)-1-hydroxypropan-2-yl)phenyl)propanoic acid]: “A (A: T ≥ 10° C.)”.

Regarding `CO[C@]1(C)C[C@@](c2cccc(CCC(=O)O)c2)(c2c[nH]c(-c3cc(Oc4c(F)cc5[nH]ccc5c4S(C)(=O)=O)ccc3F)n2)C1` [Example 71, 3-(3-((1r,3r)-1-(2-(2-fluoro-5-((6-fluoro-4-(methylsulfonyl)-1H-indol-5-yl)oxy)phenyl)-1H-imidazol-4-yl)-3-methoxy-3-methylcyclobutyl)phenyl)propanoic acid], the “DSLS NBD1/3D Human Stability delta-T” value is recorded as “A (A: T ≥ 10° C.)”.

`CS(=O)(=O)c1c(Oc2ccc(F)c(-c3ncc(Cc4cccc(CCC(N)=O)c4)[nH]3)c2)c(F)cc2[nH]ccc12` [Example 24, 3-(3-((2-(2-Fluoro-5-((6-fluoro-4-(methylsulfonyl)-1H-indol-5-yl)oxy)phenyl)-1H-imidazol-5-yl)methyl)phenyl)propanamide]: the “DSLS NBD1/3D Human Stability delta-T” value was “B (B: 5-10° C.)”. The same measure for `O=C(O)CCc1cccc(C(O)c2cnc(-c3cccc(Oc4ccc5[nH]ccc5c4C4CC4)c3)[nH]2)c1` (stereo not drawn) [Example 175, 3-(3-((2-(3-((4-cyclopropyl-1H-indol-5-yl)oxy)phenyl)-1H-imidazol-5-yl)(hydroxy)methyl)phenyl)propanoic acid]: “B (B: 5-10° C.)”; for `Cc1c(Oc2ccc(F)c(-c3ncc(C(C)c4cccc([C@H]5CC5C(=O)O)c4F)[nH]3)c2)c(F)cc2[nH]ccc12` (single isomer, unassigned) [Example 139H, trans-2-(2-fluoro-3-(1-(2-(2-fluoro-5-((6-fluoro-4-methyl-1H-indol-5-yl)oxy)phenyl)-1H-imidazol-5-yl)ethyl)phenyl)cyclopropane-1-carboxylic acid]: “C (C: ≤5° C.)”; for `CC(c1c[nH]c(-c2cc(Oc3c(F)cc4[nH]ccc4c3S(C)(=N)=O)ccc2F)n1)c1cccc(CCC(=O)O)c1F` (single isomer, unassigned) [Example 136A, 3-(2-fluoro-3-(1-(2-(2-fluoro-5-((6-fluoro-4-(S-methylsulfonimidoyl)-1H-indol-5-yl)oxy)phenyl)-1H-imidazol-4-yl)ethyl)phenyl)propanoic acid]: “B (B: 5-10° C.)”.
